Laboratory results as given in patent US20080039629A1, “Benzothniazole compositions and their use as ubiquition ligation inhibitors” (RIGEL PHARMACEUTICALS, INC., priority 2003, published 2008).

Biological target: T1, E1 and His-E2 Ubch10 (Homo sapiens, UniProt P22314)
T1 construct: host or cells: E. coli (His-Ubch10); Sf9 insect cells (E1)
T1 sequence (P22314 1-1058): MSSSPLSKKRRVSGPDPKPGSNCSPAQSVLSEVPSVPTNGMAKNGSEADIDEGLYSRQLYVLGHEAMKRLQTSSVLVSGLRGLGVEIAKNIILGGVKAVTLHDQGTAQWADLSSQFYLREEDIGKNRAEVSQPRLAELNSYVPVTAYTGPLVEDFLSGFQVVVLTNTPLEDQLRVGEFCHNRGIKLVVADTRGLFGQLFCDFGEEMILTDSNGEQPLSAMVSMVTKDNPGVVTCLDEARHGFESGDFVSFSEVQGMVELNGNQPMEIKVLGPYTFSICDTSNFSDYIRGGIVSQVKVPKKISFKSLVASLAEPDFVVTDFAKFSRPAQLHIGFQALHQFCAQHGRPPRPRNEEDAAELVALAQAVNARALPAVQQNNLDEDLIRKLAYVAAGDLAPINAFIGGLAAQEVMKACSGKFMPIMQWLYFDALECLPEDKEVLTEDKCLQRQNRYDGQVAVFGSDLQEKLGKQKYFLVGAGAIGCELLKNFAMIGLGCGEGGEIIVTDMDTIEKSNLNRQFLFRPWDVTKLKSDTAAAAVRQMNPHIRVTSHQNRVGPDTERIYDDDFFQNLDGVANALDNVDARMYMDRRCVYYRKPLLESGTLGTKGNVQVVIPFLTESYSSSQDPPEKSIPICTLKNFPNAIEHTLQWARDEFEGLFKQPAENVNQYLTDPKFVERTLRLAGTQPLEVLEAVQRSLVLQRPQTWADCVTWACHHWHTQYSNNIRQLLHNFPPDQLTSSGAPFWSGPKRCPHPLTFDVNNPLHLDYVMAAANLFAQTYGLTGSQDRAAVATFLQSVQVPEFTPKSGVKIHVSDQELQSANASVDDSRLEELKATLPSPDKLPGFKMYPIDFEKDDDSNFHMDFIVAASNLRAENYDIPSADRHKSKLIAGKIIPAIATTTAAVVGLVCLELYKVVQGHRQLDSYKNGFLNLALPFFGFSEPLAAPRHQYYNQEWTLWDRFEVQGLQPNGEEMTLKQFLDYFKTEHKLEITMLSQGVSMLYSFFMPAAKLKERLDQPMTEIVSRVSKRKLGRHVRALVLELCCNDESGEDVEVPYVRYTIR
Experiment: E1 to E2 transfer assay, His-E2 Ubch10, 1.0 μM ATP (low ATP)
Assay type: biochemical
Conditions: Table 5, ATP inhibition properties; inhibition measured using IC50 values
In short: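 His-Ubch10 (20 ng/well), E1 (10 ng/well) and Flag-ubiquitin (100 ng) reacted 1 h at room temperature on nickel plates in 62.5 mM Tris pH 7.5, 0.75 mM DTT, 1.0 μM ATP with inhibitor. E2-ubiquitin complex detected by anti-Flag/HRP luminescence; IC50 determined.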

| Compound | UBC10 |
| --- | --- |
| COc1ccc2nc(NC(=O)c3ccccc3)sc2n1 [Compound 139, N-(5-methoxythiazolo[5,4-b]pyridin-2-yl)benzamide] | −− (−− indicates marginal or no inhibition detected with this assay) |
| COc1ccc2nc(NC(=O)c3ccc(Cl)cc3Cl)sc2n1 [Compound 140, 2,4-dichloro-N-(5-methoxythiazolo[5,4-b]pyridin-2-yl)benzamide] | −− (−− indicates marginal or no inhibition detected with this assay) |
| COc1ccc2nc(NC(=O)c3cccc(F)c3)sc2n1 [Compound 141, 3-fluoro-N-(5-methoxythiazolo[5,4-b]pyridin-2-yl)benzamide] | ++ (++ indicates inhibition at 50 μM or or less) |
| COc1ccc2nc(NC(=O)c3cccc(Cl)c3)sc2n1 [Compound 142, 3-chloro-N-(5-methoxythiazolo[5,4-b]pyridin-2-yl)benzamide] | ++ (++ indicates inhibition at 50 μM or or less) |
| COc1ccc2nc(NC(=O)c3sccc3Cl)sc2n1 [Compound 144, 3-chloro-N-(5-methoxythiazolo[5,4-b]pyridin-2-yl)thiophene-2-carboxamide] | −− (−− indicates marginal or no inhibition detected with this assay) |
| COc1ccc2nc(NC(=O)c3c(F)cccc3F)sc2n1 [Compound 145, 2,6-difluoro-N-(5-methoxythiazolo[5,4-b]pyridin-2-yl)benzamide] | −− (−− indicates marginal or no inhibition detected with this assay) |
| COc1ccc2nc(NC(=O)c3ccc(F)c(F)c3)sc2n1 [Compound 146, 3,4-difluoro-N-(5-methoxythiazolo[5,4-b]pyridin-2-yl)benzamide] | ++ (++ indicates inhibition at 50 μM or or less) |
| COc1ccc2nc(NC(=O)c3ccc(C(F)(F)F)cc3)sc2n1 [Compound 147, N-(5-methoxythiazolo[5,4-b]pyridin-2-yl)-4-(trifluoromethyl)benzamide] | −− (−− indicates marginal or no inhibition detected with this assay) |
| COc1ccc2nc(NC(=O)c3ccc(NC(C)=O)cc3)sc2n1 [Compound 149, 4-acetamido-N-(5-methoxythiazolo[5,4-b]pyridin-2-yl)benzamide] | ++ (++ indicates inhibition at 50 μM or or less) |
| COc1ccc2nc(NC(=O)c3ccc([N+](=O)[O-])cc3)sc2n1 [Compound 150, N-(5-methoxythiazolo[5,4-b]pyridin-2-yl)-4-nitrobenzamide] | ++ (++ indicates inhibition at 50 μM or or less) |
| COc1ccc(C(=O)Nc2nc3ccc(OC)nc3s2)cc1 [Compound 151, 4-methoxy-N-(5-methoxythiazolo[5,4-b]pyridin-2-yl)benzamide] | ++ (++ indicates inhibition at 50 μM or or less) |
| COc1ccc2nc(NC(=O)c3ccc(C)cc3)sc2n1 [Compound 152, N-(5-methoxythiazolo[5,4-b]pyridin-2-yl)-4-methylbenzamide] | ++ (++ indicates inhibition at 50 μM or or less) |
| COc1ccc2nc(NC(=O)c3ccco3)sc2n1 [Compound 153, N-(5-methoxythiazolo[5,4-b]pyridin-2-yl)furan-2-carboxamide] | ++ (++ indicates inhibition at 50 μM or or less) |
| COc1ccc2nc(NC(=O)c3ccc(F)cc3)sc2n1 [Compound 154, 4-fluoro-N-(5-methoxythiazolo[5,4-b]pyridin-2-yl)benzamide] | ++ (++ indicates inhibition at 50 μM or or less) |
| COc1ccc2nc(NC(=O)c3ccc(Cl)cc3)sc2n1 [Compound 155, 4-chloro-N-(5-methoxythiazolo[5,4-b]pyridin-2-yl)benzamide] | ++ (++ indicates inhibition at 50 μM or or less) |
| O=C(Nc1nc2ccccc2s1)c1ccc([N+](=O)[O-])o1 [Compound 156, N-(benzo[d]thiazol-2-yl)-5-nitrofuran-2-carboxamide] | −− (−− indicates marginal or no inhibition detected with this assay) |
| O=C(Nc1nc2ccccc2s1)c1ccccc1Br [Compound 159, N-(benzo[d]thiazol-2-yl)-2-bromobenzamide] | ++ (++ indicates inhibition at 50 μM or or less) |
| O=C(Nc1nc2ccccc2s1)c1ccccc1F [Compound 164, N-(benzo[d]thiazol-2-yl)-2-fluorobenzamide] | −− (−− indicates marginal or no inhibition detected with this assay) |

| Compound | UBC10 |
| --- | --- |
| O=C(Nc1nc2ccccc2s1)c1ccccc1 [Compound 168, N-(benzo[d]thiazol-2-yl)benzamide] | −− (−− indicates marginal or no inhibition detected with this assay) |
| O=C(Nc1nc2ccccc2s1)c1ccccc1[N+](=O)[O-] [Compound 169, N-(benzo[d]thiazol-2-yl)-2-nitrobenzamide] | −− (−− indicates marginal or no inhibition detected with this assay) |
| CCCc1ccc(C(=O)Nc2nc3ccccc3s2)cc1 [Compound 170, N-(benzo[d]thiazol-2-yl)-4-propylbenzamide] | −− (−− indicates marginal or no inhibition detected with this assay) |
| O=C(Nc1nc2ccccc2s1)c1ccc(Br)cc1 [Compound 172, N-(benzo[d]thiazol-2-yl)-4-bromobenzamide] | −− (−− indicates marginal or no inhibition detected with this assay) |
| O=C(Nc1nc2ccccc2s1)c1cccc(F)c1 [Compound 174, N-(benzo[d]thiazol-2-yl)-3-fluorobenzamide] | −− (−− indicates marginal or no inhibition detected with this assay) |
| CC(C)(C)c1ccc(C(=O)Nc2nc3ccccc3s2)cc1 [Compound 176, N-(benzo[d]thiazol-2-yl)-4-tert-butylbenzamide] | −− (−− indicates marginal or no inhibition detected with this assay) |
| O=C(O)c1ccc2c(c1)C(=O)N(c1nc3ccccc3s1)C2=O [Compound 181, 2-(benzo[d]thiazol-2-yl)-1,3-dioxosioindoline-5-carboxylic acid] | −− (−− indicates marginal or no inhibition detected with this assay) |
| O=C(Nc1nc2ccccc2s1)c1cccc(Cl)c1 [Compound 186, N-(benzo[d]thiazol-2-yl)-3-chlorobenzamide] | −− (−− indicates marginal or no inhibition detected with this assay) |
| COc1cccc(C(=O)Nc2nc3ccccc3s2)c1 [Compound 189, N-(benzo[d]thiazol-2-yl)-3-methoxybenzamide] | −− (−− indicates marginal or no inhibition detected with this assay) |
| O=C(Nc1nc2ccccc2s1)c1ccccc1Cl [Compound 194, N-(benzo[d]thiazol-2-yl)-2-chlorobenzamide] | −− (−− indicates marginal or no inhibition detected with this assay) |
| O=C(Nc1nc2ccccc2s1)c1cccc(I)c1 [Compound 195, N-(benzo[d]thiazol-2-yl)-3-iodobenzamide] | ++ (++ indicates inhibition at 50 μM or or less) |
| O=C(Nc1nc2ccccc2s1)C1CCCCC1 [Compound 205, N-(benzo[d]thiazol-2-yl)cyclohexanecarboxamide] | −− (−− indicates marginal or no inhibition detected with this assay) |
| O=C(Nc1nc2ccccc2s1)c1ccc(Br)o1 [Compound 208, N-(benzo[b]thiazol-2-yl)-5-bromofuran-2-carboxamide] | −− (−− indicates marginal or no inhibition detected with this assay) |
| CC(C)c1ccc(C(=O)Nc2nc3ccccc3s2)cc1 [Compound 222, N-(benzo[d]thiazol-2-yl)-4-isopropylbenzamide] | −− (−− indicates marginal or no inhibition detected with this assay) |
| CN(C)c1ccccc1C(=O)Nc1nc2ccccc2s1 [Compound 223, N-(benzo[d]thiazol-2-yl)-2-(dimethylamino)benzamide] | −− (−− indicates marginal or no inhibition detected with this assay) |
| O=C(Nc1nc2ccccc2s1)[C@H]1CCN1 [Compound 224, (R)-N-(benzo[d]thiazol-2-yl)azetidine-2-carboxamide] | −− (−− indicates marginal or no inhibition detected with this assay) |
| O=C(Nc1nc2ccccc2s1)C1CCNCC1 [Compound 225, N-(benzo[d]thiazol-2-yl)piperidine-4-carboxamide] | −− (−− indicates marginal or no inhibition detected with this assay) |
